Our source for the MIC, viability and selectivity ratio values is ChEMBL document CHEMBL4680171, “Oxadiazolylthiazoles as novel and selective antifungal agents” (Eur J Med Chem, 2020).

Molecules are shown by their SMILES. Values after ≈ are worked out from the molar mass of the structure shown.

Data set [1] relates to Candida parapsilosis. The data set can be described thus: Antifungal activity against Candida parapsilosis CAB 502638 assessed as reduction in fungal growth incubated for 24 hrs by CLSI based broth microdilution method. Format: functional. As to conditions: Lodderomyces parapsilosis. On the technique in general: Dilution methods test growth across graded concentrations, often in twofold steps.

Data set [2] has as its system Cryptococcus neoformans. Briefly: Antifungal activity against Cryptococcus neoformans NR48770 assessed as reduction in fungal growth incubated for 48 hrs by CLSI based broth microdilution method. Type of data set: functional.
The test system of data set [3] is Aspergillus fumigatus. Briefly: Antifungal activity against Aspergillus fumigatus NR 35303 assessed as reduction in fungal growth incubated for 24 hrs by CLSI based broth microdilution method. Type of data set: functional.
Data set [4] can be described thus: Cytotoxicity against human Caco-2 cells assessed as cell viability up to 64 ug/ml incubated for 24 hrs by MTS assay. Type of data set: cell-based. As to conditions: dose <=64 µg/ml, read-out: Activity. Background: Formazan colour is commonly taken as a measure of viable cells.
Data set [5] deals with Candida albicans. The data set can be described thus: Antifungal activity against Candida albicans SS5314 assessed as reduction in fungal growth incubated for 24 hrs by CLSI based broth microdilution method. Type of data set: functional.
A short description of data set [6]: Selectivity index, ratio of CC50 for African green monkey Vero cells to MIC for antifungal activity against Candida albicans ATCC 10231. As to conditions: read-out: Selectivity Index. Type of data set: toxicity.
Data set [7] can be described thus: Selectivity index, ratio of CC50 for African green monkey Vero cells to MIC for antifungal activity against Candida parapsilosis ATCC 22019. Format: toxicity. Conditions: read-out: Selectivity Index.
A short description of data set [8]: Selectivity index, ratio of CC50 for African green monkey Vero cells to MIC for antifungal activity against Candida krusei CAB 396420. Format: toxicity. As to conditions: read-out: Selectivity Index.
Data set [9] can be described thus: Selectivity index, ratio of CC50 for African green monkey Vero cells to MIC for antifungal activity against Aspergillus fumigatus NR 35303. Type of data set: toxicity. Conditions: read-out: Selectivity Index.
Data set [10] can be described thus: Selectivity index, ratio of maximum non-toxic concentration for human Caco-2 cells to MIC for antifungal activity against fluconazole-resistant Candida auris 383. As to conditions: read-out: Selectivity Index. Type of data set: toxicity.
Data set [11] in a line: Selectivity index, ratio of maximum non-toxic concentration for human Caco-2 cells to MIC for antifungal activity against fluconazole-resistant Candida auris 384. Conditions: read-out: Selectivity Index. Type of data set: toxicity.
Data set [12] is described as follows: Selectivity index, ratio of maximum non-toxic concentration for human Caco-2 cells to MIC for antifungal activity against Candida parapsilosis ATCC 22019. Conditions: read-out: Selectivity Index. Format: toxicity.
Data set [13] can be described thus: Selectivity index, ratio of maximum non-toxic concentration for human Caco-2 cells to MIC for antifungal activity against Candida krusei CAB 396420. Format: toxicity. As to conditions: read-out: Selectivity Index.
Data set [14] in a line: Selectivity index, ratio of maximum non-toxic concentration for human Caco-2 cells to MIC for antifungal activity against Candida krusei ATCC 34135. Type of data set: toxicity. As to conditions: read-out: Selectivity Index.
Data set [15] can be described thus: Selectivity index, ratio of maximum non-toxic concentration for human Caco-2 cells to MIC for antifungal activity against Cryptococcus neoformans NR41298. Type of data set: toxicity. As to conditions: read-out: Selectivity Index.
A short description of data set [16]: Selectivity index, ratio of maximum non-toxic concentration for human Caco-2 cells to MIC for antifungal activity against Cryptococcus neoformans NR48770. Type of data set: toxicity. Conditions: read-out: Selectivity Index.
Data set [17] is described as follows: Selectivity index, ratio of maximum non-toxic concentration for human Caco-2 cells to MIC for antifungal activity against Cryptococcus gattii NR43210. Format: toxicity. As to conditions: read-out: Selectivity Index.

In the case of `Cc1nc(-c2ccc(C(C)(C)C)cc2)sc1-c1nnc(N[C@@H]2CCCC[C@@H]2N)o1` (relative stereo), the MIC (in general, the least concentration at which growth counts as inhibited) worked out at 1 µg/mL (≈ 2.43 µM) in data set [1], 1 µg/mL (≈ 2.43 µM) in data set [2], 8 µg/mL (≈ 19.4 µM) in data set [3] and 2 µg/mL (≈ 4.86 µM) in data set [5]. Moreover, the viability at 24 h in data set [4] turned out to be 100%. Also, the selectivity ratio in data set [6], in [7], in data set [8], in data set [9], in data set [10] and in data set [11] was at most 64 each time. The selectivity ratio in data set [12], in data set [13], in [14], in [15], in data set [16] and in data set [17] was at most 64 in each case.
